Values quoted from earlier work, collected in patent US20240033221A1, “LONG-ACTING BUPIVACAINE MICROSPHERE FORMULATIONS” (Scienture, Inc., priority 2020, published 2024).
Counter-ions that a name gives are not always drawn.

Settings: dental injections

## CCCCN1CCCCC1C(=O)Nc1c(C)cccc1C (centres unmarked) [bupivacaine HCl, bupivacaine hydrochloride]
  duration of action: 2 to 8 h
  onset of action: 2 to 10 min
